Where two headings read alike, the source gives them in different places.
Columns and labels:
[1] = biological target: Recombinant Human NF-Kappab-Inducing Kinase (NIK/MAP3K14) (Homo sapiens, UniProt Q99558); experiment: Inhibition of auto-phosphorylation of recombinant human NIK/MAP3K14 (AlphaScreen); format: biochemical
Procedure, shortened: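 AlphaScreen read-out used anti-phospho-IKK Ser176/180 antibody after 2 h, 25 °C incubation of compound, 1 nM GST-NIK and 5 µM ATP (final DMSO 0.7%). Percent inhibition referenced to high (enzyme) and low (no enzyme, no ATP) controls; sigmoidal curve fitting gave IC50.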

[2] = tested on: p-IKKα levels in L363 (NIK translocated multiple myeloma) cells; experiment: Effect of compounds on p-IKKα levels in L363 cells (AlphaLISA SureFire Ultra); format: cell-based; settings: Homo sapiens, read-out: Assay 2 IC50
Procedure, shortened: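 Phospho-IKKα (Ser 176/180) was quantified by AlphaLISA in lysed L363 cells after 6 h compound exposure (0.3% DMSO, 11 points, 1:3) alongside 250 ng/ml BAFF and 10 uM MG132, following overnight BAFF priming in low-serum DMEM. Duplicate curves were scaled between BAFF/DMSO/MG132 and unstimulated DMSO wells, then fitted sigmoidally for IC50.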

[3] = NIK/MAP3K14 auto-phosphorylation, 5 microM ATP, 1 nM enzyme, 2 h at 25° C., average of values, read-out: Assay 1 IC50
[4] = L-363, L363 cells, BAFF stimulated, MG132, 6 h, average of values

Sequence of Recombinant Human NF-Kappab-Inducing Kinase (NIK/MAP3K14) (Q99558 whole entry): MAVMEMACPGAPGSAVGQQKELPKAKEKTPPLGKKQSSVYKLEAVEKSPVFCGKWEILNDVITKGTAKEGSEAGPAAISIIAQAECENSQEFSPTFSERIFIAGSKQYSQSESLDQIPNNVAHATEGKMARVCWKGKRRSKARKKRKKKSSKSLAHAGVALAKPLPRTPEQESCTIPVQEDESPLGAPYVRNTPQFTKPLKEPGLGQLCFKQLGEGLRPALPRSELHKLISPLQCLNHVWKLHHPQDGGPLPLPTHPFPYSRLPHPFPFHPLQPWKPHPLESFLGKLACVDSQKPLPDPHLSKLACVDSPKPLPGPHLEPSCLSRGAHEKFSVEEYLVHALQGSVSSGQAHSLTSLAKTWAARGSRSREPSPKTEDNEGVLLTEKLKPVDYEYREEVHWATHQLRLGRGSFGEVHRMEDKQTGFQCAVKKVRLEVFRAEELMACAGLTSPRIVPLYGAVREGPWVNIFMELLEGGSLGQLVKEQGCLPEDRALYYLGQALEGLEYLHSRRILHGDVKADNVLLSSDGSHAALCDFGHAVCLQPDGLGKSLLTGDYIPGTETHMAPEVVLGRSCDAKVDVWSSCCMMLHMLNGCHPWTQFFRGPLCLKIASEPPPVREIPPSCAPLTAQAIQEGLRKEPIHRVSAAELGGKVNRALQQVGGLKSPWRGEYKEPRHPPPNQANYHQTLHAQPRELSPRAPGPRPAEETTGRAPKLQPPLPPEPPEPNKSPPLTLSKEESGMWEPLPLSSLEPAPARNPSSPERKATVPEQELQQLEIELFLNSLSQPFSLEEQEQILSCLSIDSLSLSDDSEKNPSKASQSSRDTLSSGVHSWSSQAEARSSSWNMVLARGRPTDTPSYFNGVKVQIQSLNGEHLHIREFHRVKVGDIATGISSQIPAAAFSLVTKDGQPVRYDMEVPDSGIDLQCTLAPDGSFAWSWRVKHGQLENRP

SMILES	IC50 [1] [nM]	IC50 ([2]; L-363, 6 h) [nM]	IC50 [1, 3] [nM]	IC50 [2, 4] [nM]
CC(C)Cc1sc(-c2cccc(-c3cc([C@]4(O)CCN(C)C4=O)on3)c2)nc1C(N)=O [Example 220, (R)-2-(3-(5-(3-Hydroxy-1-methyl-2-oxopyrrolidin-3-yl)isoxazol-3-yl)phenyl)-5-isobutylthiazole-4-carboxamide]	< 100	> 501	–	–
CN1CC[C@@](O)(c2cc(-c3cccc(-c4nc(C(N)=O)c(C5CCC5)s4)c3)no2)C1=O [Example 221, (R)-5-Cyclobutyl-2-(3-(5-(3-hydroxy-1-methyl-2-oxopyrrolidin-3-yl)isoxazol-3-yl)phenyl)thiazole-4-carboxamide]	–	–	< 100	> 501
CN1CC[C@@](O)(c2cc(-c3cccc(-c4nc(C(N)=O)c(C(F)F)s4)c3)no2)C1=O [Example 222, (R)-5-(Difluoromethyl)-2-(3-(5-(3-hydroxy-1-methyl-2-oxopyrrolidin-3-yl)isoxazol-3-yl)phenyl)thiazole-4-carboxamide]	–	–	< 100	100 to 500
CN1CC[C@@](O)(c2cc(-c3cccc(-c4nc(C(N)=O)c(CNC5CCCC5)s4)c3)no2)C1=O [Example 223, (R)-5-((Cyclopentylamino)methyl)-2-(3-(5-(3-hydroxy-1-methyl-2-oxopyrrolidin-3-yl)isoxazol-3-yl)phenyl)thiazole-4-carboxamide]	–	–	< 100	> 501
COc1cc(-c2cccc(-c3cc([C@]4(O)CCN(C)C4=O)on3)c2)nc2[nH]ncc12 [Example 224, (R)-3-Hydroxy-3-(3-(3-(4-methoxy-1H-pyrazolo[3,4-b]pyridin-6-yl)phenyl)isoxazol-5-yl)-1-methylpyrrolidin-2-one]	–	–	100 to 500	> 501
CN1CC[C@@](O)(c2cc(-c3cccc(-c4cc(C(F)(F)F)c5cn[nH]c5n4)c3)no2)C1=O [Example 225, (R)-3-Hydroxy-1-methyl-3-(3-(3-(4-(trifluoromethyl)-1H-pyrazolo[3,4-b]pyridin-6-yl)phenyl)isoxazol-5-yl)pyrrolidin-2-one]	–	–	100 to 500	> 501
CN1CC[C@@](O)(c2cc(-c3cccc(-c4ncc5cn[nH]c5n4)c3)no2)C1=O [Example 226, (R)-3-(3-(3-(1H-Pyrazolo[3,4-d]pyrimidin-6-yl)phenyl)isoxazol-5-yl)-3-hydroxy-1-methylpyrrolidin-2-one]	–	–	> 501	> 501
CN1CC[C@@](O)(c2cc(-c3cccc(-c4ncc5cnn(C)c5n4)c3)no2)C1=O [Example 227, (R)-3-Hydroxy-1-methyl-3-(3-(3-(1-methyl-1H-pyrazolo[3,4-d]pyrimidin-6-yl)phenyl)isoxazol-5-yl)pyrrolidin-2-one]	–	–	100 to 500	> 501
CN1CC[C@@](O)(c2cc(-c3cccc(-c4ccc5[nH]ncc5n4)c3)no2)C1=O [Example 228, (R)-3-(3-(3-(1H-Pyrazolo[4,3-b]pyridin-5-yl)phenyl)isoxazol-5-yl)-3-hydroxy-1-methylpyrrolidin-2-one]	–	–	100 to 500	> 501
CN1CC[C@@](O)(c2cc(-c3cccc(-c4ccc5c(cnn5C)n4)c3)no2)C1=O [Example 229, (R)-3-Hydroxy-1-methyl-3-(3-(3-(1-methyl-1H-pyrazolo[4,3-b]pyridin-5-yl)phenyl)isoxazol-5-yl)pyrrolidin-2-one]	–	–	> 501	> 501
COc1cc(-c2cccc(-c3cc([C@]4(O)CCN(C)C4=O)on3)c2)nc2c1c(C)nn2C [Example 230, (R)-3-Hydroxy-3-(3-(3-(4-methoxy-1,3-dimethyl-1H-pyrazolo[3,4-b]pyridin-6-yl)phenyl)isoxazol-5-yl)-1-methylpyrrolidin-2-one]	–	–	100 to 500	> 501
CN1CC[C@@](O)(c2cc(-c3cccc(-c4nc(C(N)=O)c(CN5CCCC5)s4)c3)no2)C1=O [Example 231, (R)-2-(3-(5-(3-Hydroxy-1-methyl-2-oxopyrrolidin-3-yl)isoxazol-3-yl)phenyl)-5-(pyrrolidin-1-ylmethyl)thiazole-4-carboxamide]	–	–	< 100	> 501
CN1CC[C@@](O)(c2cc(-c3cccc(-c4nc(C(N)=O)c5n4CCN(CCC(F)(F)F)C5)c3)no2)C1=O [Example 232, (R)-3-(3-(5-(3-Hydroxy-1-methyl-2-oxopyrrolidin-3-yl)isoxazol-3-yl)phenyl)-7-(3,3,3-trifluoropropyl)-5,6,7,8-tetrahydroimidazo[1,5-a]pyrazine-1-carboxamide]	–	–	> 501	> 501
CC(C)N1CCn2c(-c3cccc(-c4cc([C@]5(O)CCN(C)C5=O)on4)c3)nc(C(N)=O)c2C1 [Example 233, (R)-3-(3-(5-(3-Hydroxy-1-methyl-2-oxopyrrolidin-3-yl)isoxazol-3-yl)phenyl)-7-isopropyl-5,6,7,8-tetrahydroimidazo[1,5-a]pyrazine-1-carboxamide]	–	–	> 501	> 501
CN1CC[C@@](O)(c2cc(-c3cccc(-c4nc(C(N)=O)c5n4CCN(Cc4ccccc4)C5)c3)no2)C1=O [Example 234, (R)-7-Benzyl-3-(3-(5-(3-hydroxy-1-methyl-2-oxopyrrolidin-3-yl)isoxazol-3-yl)phenyl)-5,6,7,8-tetrahydroimidazo[1,5-a]pyrazine-1-carboxamide]	–	–	> 501	> 501
Cc1ncc(C#N)cc1Nc1sc(-c2cccc(-c3cc([C@]4(O)CCN(C)C4=O)on3)c2)nc1C(N)=O [Example 235, (R)-5-((5-Cyano-2-methylpyridin-3-yl)amino)-2-(3-(5-(3-hydroxy-1-methyl-2-oxopyrrolidin-3-yl)isoxazol-3-yl)phenyl)thiazole-4-carboxamide]	–	–	< 100	< 100
CN1CC[C@@](O)(c2cc(-c3cccc(-c4nc(C(N)=O)c(Nc5ccn(C)n5)s4)c3)no2)C1=O [Example 236, (R)-2-(3-(5-(3-Hydroxy-1-methyl-2-oxopyrrolidin-3-yl)isoxazol-3-yl)phenyl)-5-((1-methyl-1H-pyrazol-3-yl)amino)thiazole-4-carboxamide]	–	–	< 100	< 100
CN1CC[C@@](O)(c2cc(-c3cccc(-c4nc(C(N)=O)c(CN)s4)c3)no2)C1=O [Example 237, (R)-5-(Aminomethyl)-2-(3-(5-(3-hydroxy-1-methyl-2-oxopyrrolidin-3-yl)isoxazol-3-yl)phenyl)thiazole-4-carboxamide]	–	–	< 100	> 501
CN1CC[C@@](O)(c2cc(-c3cccc(-c4nc(C(N)=O)c(CNc5ccn(C)n5)s4)c3)no2)C1=O [Example 238, (R)-2-(3-(5-(3-Hydroxy-1-methyl-2-oxopyrrolidin-3-yl)isoxazol-3-yl)phenyl)-5-(((1-methyl-1H-pyrazol-3-yl)amino)methyl)thiazole-4-carboxamide]	–	–	< 100	100 to 500
Cc1cn(C)nc1Nc1sc(-c2cccc(-c3cc([C@]4(O)CCN(C)C4=O)on3)c2)nc1C(N)=O [Example 239, (R)-5-((1,4-Dimethyl-1H-pyrazol-3-yl)amino)-2-(3-(5-(3-hydroxy-1-methyl-2-oxopyrrolidin-3-yl)isoxazol-3-yl)phenyl)thiazole-4-carboxamide]	–	–	< 100	< 100
CN1CC[C@@](O)(c2cc(-c3ccc(F)c(-c4cc(C(F)(F)F)cc(C(N)=O)n4)c3)no2)C1=O [Example 240, (R)-6-(2-Fluoro-5-(5-(3-hydroxy-1-methyl-2-oxopyrrolidin-3-yl)isoxazol-3-yl)phenyl)-4-(trifluoromethyl)picolinamide]	–	–	< 100	> 501
CN1CC[C@@](O)(c2cc(-c3ccnc(-c4cc(C5CC5)c(N)c(C(N)=O)n4)c3)no2)C1=O [Example 241, (R)-5-Amino-4-cyclopropyl-4′-(5-(3-hydroxy-1-methyl-2-oxopyrrolidin-3-yl)isoxazol-3-yl)-[2,2′-bipyridine]-6-carboxamide]	–	–	< 100	< 100
CN1CC[C@@](O)(c2cc(-c3cccc(-c4cc(C5CC5)c(N)c(C(N)=O)n4)c3F)no2)C1=O [Example 242, (R)-3-Amino-4-cyclopropyl-6-(2-fluoro-3-(5-(3-hydroxy-1-methyl-2-oxopyrrolidin-3-yl)isoxazol-3-yl)phenyl)picolinamide]	–	–	< 100	< 100
CN1CC[C@@](O)(c2cc(-c3cc(F)cc(-c4cc(C5CC5)c(N)c(C(N)=O)n4)c3)no2)C1=O [Example 243, (R)-3-Amino-4-cyclopropyl-6-(3-fluoro-5-(5-(3-hydroxy-1-methyl-2-oxopyrrolidin-3-yl)isoxazol-3-yl)phenyl)picolinamide]	–	–	< 100	< 100
CN1CC[C@@](O)(c2cc(-c3cc(-c4cc(C5CC5)c(N)c(C(N)=O)n4)ccc3F)no2)C1=O [Example 244, (R)-3-Amino-4-cyclopropyl-6-(4-fluoro-3-(5-(3-hydroxy-1-methyl-2-oxopyrrolidin-3-yl)isoxazol-3-yl)phenyl)picolinamide]	–	–	< 100	> 501
CN1CC[C@@](O)(c2cc(-c3ccc(F)c(-c4cc(C5CC5)c(N)c(C(N)=O)n4)c3)no2)C1=O [Example 245, (R)-3-Amino-4-cyclopropyl-6-(2-fluoro-5-(5-(3-hydroxy-1-methyl-2-oxopyrrolidin-3-yl)isoxazol-3-yl)phenyl)picolinamide]	–	–	< 100	< 100
